PMC6447871, “Design, Synthesis, Molecular Modeling, In Silico ADME Studies and Anti-HIV-1 Assay of New Diazocoumarin Derivatives” (Iranian Journal of Pharmaceutical Research : IJPR, 2018)

Key:
HIV-1 [1] = experiment: microbe, parasite or virus in culture; assay type: cell-based; conditions: Human immunodeficiency virus 1, NL43, M-HeLa, 72 h, read-out: (%) Inhibition rate of p24 expression
Procedure: (§1) Anti-HIV-1 activity of synthesized compounds was evaluated in single cycle replication assay which was evaluated in our laboratory and reported previously ([32]-[35]). In this assay, the single-cycle replicable HIV NL4-3 virions (200 ng p24) were inoculated concurrently with compounds in different concentrations to the Hela cells. The inhibition rate (%) of p24 expression was measured by capture ELISA (Biomerieux, France) 72 hours after inoculation. Percentage inhibition of p24 expression in treated culture was calculated as inhibition rate of p24 (%). The XTT (sodium3-[1(phenylaminocarbonyl)-3,4-tetrazolium]-bis(4-methoxy-6-nitro)benzene sulfonic acid) proliferation assay was conducted to evaluate the cellular toxicity according to kit instructions ([36], [37]). Cytotoxicity test was performed exactly after the p24 assay.
(§2) Compounds 11a-h were assayed for anti-HIV-1 activity in single cycle replication method which reflects only one round of infection. Anti-HIV activity of compounds was measured as inhibition rate (%) of p24 expression in Hela cells cultures. Azidothymidine (AZT) was the positive control in the test. The cytotoxic properties were measured in the same cells by XTT proliferation assay and reported as percentage of cell viability.

[2] = XTT proliferation assay (cellular toxicity); conditions: human
Procedure: as §1, §2

HIV-1 [3] = system: HIV-1; set-up: method as in earlier work; conditions: read-out: EC50 (anti-HIV-1 activity); cited from earlier work
[4] = set-up: method as in earlier work; conditions: read-out: CC50 (cytotoxicity); cited from earlier work

Compound | inhibition at 100 µM (HIV-1 [1]) [%] | viability at 72 h, 100 µM [2] [%] | melting point | EC50 (HIV-1 [3]) [µM] | CC50 [4] [µM]
O=c1oc2ccccc2c(O)c1N=Nc1ccc(-c2nnc(SCc3ccccc3)o2)cc1 [Compound 11d, 3-((4-(5-(Benzylthio)-1,3,4-oxadiazol-2-yl)phenyl)diazenyl)-4-hydroxy-2H-chromen-2-one] | 6 | 94 | 243.1 to 243.8 °C |  | 
CSc1nnc(-c2ccc(N=Nc3c(O)c4ccccc4oc3=O)cc2)o1 [Compound 11a, 4-Hydroxy-3-((4-(5-(methylthio)-1,3,4-oxadiazol-2-yl)phenyl)diazenyl)-2H-chromen-2-one] | 79 | 51 | 211.6 to 212.1 °C |  | 
O=c1c(-c2nnc(SCc3ccccc3F)o2)c[nH]c2c(-c3ccccc3)cccc12 [Compound 3] |  |  |  | 50 | > 100
Cc1cn([C@H]2C[C@H](N=[N+]=[N-])[C@@H](CO)O2)c(=O)[nH]c1=O [AZT, Azidothymidine, reference compound] | 58 | 92 |  |  | 
CCCSc1nnc(-c2ccc(N=Nc3c(O)c4ccccc4oc3=O)cc2)o1 [Compound 11c, 4-Hydroxy-3-((4-(5-(propylthio)-1,3,4-oxadiazol-2-yl)phenyl)diazenyl)-2H-chromen-2-one] | 32 | 93 | 205.5 to 206.8 °C |  | 
O=c1oc2ccccc2c(O)c1N=Nc1ccc(-c2nnc(SCc3ccccc3Cl)o2)cc1 [Compound 11e, 3-((4-(5-(2-Chlorobenzylthio)-1,3,4-oxadiazol-2-yl)phenyl)diazenyl)-4-hydroxy-2H-chromen-2-one] | 33 | 75 | 236.8 to 237.5 °C |  | 
O=c1oc2ccccc2c(O)c1N=Nc1ccc(-c2nnc(SCc3ccccc3F)o2)cc1 [Compound 11g, 3-((4-(5-(2-Fluorobenzylthio)-1,3,4-oxadiazol-2-yl)phenyl)diazenyl)-4-hydroxy-2H-chromen-2-one] | 22 | 74 | 240.1 to 242.2 °C |  | 
O=c1oc2ccccc2c(O)c1N=Nc1ccc(-c2nnc(SCc3ccc(Cl)cc3)o2)cc1 [Compound 11f, 3-((4-(5-(4-Chlorobenzylthio)-1,3,4-oxadiazol-2-yl)phenyl)diazenyl)-4-hydroxy-2H-chromen-2-one] | 52 | 100 | 260.8 to 263.8 °C |  | 
CCSc1nnc(-c2ccc(N=Nc3c(O)c4ccccc4oc3=O)cc2)o1 [Compound 11b, 3-((4-(5-(Ethylthio)-1,3,4-oxadiazol-2-yl)phenyl)diazenyl)-4-hydroxy-2H-chromen-2-one] | 5 | 100 | 290 to 291 °C (dec.) |  | 
O=c1oc2ccccc2c(O)c1N=Nc1ccc(-c2nnc(SCc3ccc(F)cc3)o2)cc1 [Compound 11h, 3-((4-(5-(4-Fluorobenzylthio)-1,3,4-oxadiazol-2-yl)phenyl)diazenyl)-4-hydroxy-2H-chromen-2-one] | 25 | 100 | 246.6 to 251.6 °C |  | 
